Columns and labels:
tGNBP-2 [1] = assay: β(1,3)-glucanase activity assay (flow cytometric microsphere assay, zymogram); format: biochemical, N. corniger; settings: dose/response, FIG. 5C
Procedure: (§1) FIG. 2 provides results from a microsphere-based flow cytometric assay for β(1,3)-glucanase activity. Laminarin was labeled at the reducing end with rhodamine green X-succinyl ester, stably adsorbed on 3.0μ-diameter polystyrene microspheres in carbonate/bicarbonate buffer at pH=9.6 and washed in 100 mM sodium acetate pH 5.5. Samples were then incubated with the fluorescent microspheres for varying time periods starting from 15 min and analyzed by flow cytometry. Purified β(1,3)-glucanase at 100 μg/mL (0.1 mU/mL) and sodium acetate buffer alone were used as positive and negative controls, respectively. Finally, fluorescence data were transformed to % activity and plotted vs. samples or concentrations. β(1,3)-glucanase activity was measured by a gel electrophoresis assay (39) and by a flow cytometric method developed (FIG. 2). Briefly, samples were run on Carboxymethyl Curdlan REmazol Brilliant Blue (CN-Curdlan-RBB, Lowe Biochemica, Germany). […] Samples were mixed with 1 μL of the microsphere suspension, incubated for 15-30 minutes at 37° C. and analyzed by flow cytometry. Commercially available purified β(1,3)-glucanase from Helix pomatia or Bacilus subtilis was used at 0.1 mU/mL as positive control and results were expressed as % activity of this control.

other β-glucanases = assay: β(1,3)-glucanase activity assay, tGNBP-2-depleted termite lysate; format: biochemical, N. corniger; settings: tGNBP-2-depleted lysate, FIG. 5C
Procedure: as §1

[2] = tested on: SAPK/JNK signaling in hemocytes; assay: Intracellular flow cytometry for SAPK/JNK phosphorylation in termite hemocytes; format: cell-based, N. corniger
Procedure: N. corniger workers, large workers or soldiers (whole termites or isolated tissues) were surface sterilized (brief wash with 5% hypochlorite and 3 washes with sterile water) and homogenized in acetate buffer (200 mM, pH 5.0, 4 μL/termite) with Biomasher® columns (pore size 80-145μ, […], San Carlos, Calif.) according to the manufacturer's instructions. Cuticular washes were prepared by gently agitating chilled workers in 0.1% Tween 80 for 5 seconds (10 μL/worker). Wash samples were concentrated with a P10 Microcon® filter (Millipore, Billerica, Mass.). Termite hemocytes were collected from hemolymph drawn from 10 chilled N. corniger workers (1 μL/termite) using a micropipette and kept in ice-cold Burns-Tracy saline as described previously (37). Whole cell preparations were obtained by gentle trituration of termites in ice-cold Burns-Tracy saline. Hemocyte staining was performed in 0.1% w/v BSA, 0.01% w/v NaN3 in PBS, 30 min on ice per antibody with a single wash with buffer between antibodies (38). Primary antibodies: anti-tGNBP-2 (5 μg/mL) or rabbit IgG (5 μg/mL, Sigma, St. Louis, Mo.); secondary antibody: anti-rabbit PE (1:400, Invitrogen, Carlsbad, Calif.). […] Flow cytometry was performed on a Beckman-Coulter Cell Lab QuantaTM SC MPL-automated flow cytometer and analyzed with Quanta AnalysisTM software.

tGNBP-2 expression [3] = assay: Induction of tGNBP-2 by laminarin challenge on isolated termite cells, Western blot; format: cell-based, N. corniger; settings: 20 mM, FIG. 5E
Procedure: N. corniger workers, large workers or soldiers (whole termites or isolated tissues) were surface sterilized (brief wash with 5% hypochlorite and 3 washes with sterile water) and homogenized in acetate buffer (200 mM, pH 5.0, 4 μL/termite) with Biomasher® columns (pore size 80-145μ, […], San Carlos, Calif.) according to the manufacturer's instructions. Cuticular washes were prepared by gently agitating chilled workers in 0.1% Tween 80 for 5 seconds (10 μL/worker). Wash samples were concentrated with a P10 Microcon® filter (Millipore, Billerica, Mass.). Termite hemocytes were collected from hemolymph drawn from 10 chilled N. corniger workers (1 μL/termite) using a micropipette and kept in ice-cold Burns-Tracy saline as described previously (37). Whole cell preparations were obtained by gentle trituration of termites in ice-cold Burns-Tracy saline. Anti-tGNBP-2 antibodies were raised in rabbits and purified by standard methods (GenScript, Piscataway, N.J.). Antibodies were covalently linked to 1.0μ diameter Dynabeads® MyOneTM carboxylic acid functionalized magnetic beads (Invitrogen) according to the manufacturer's instructions. Fresh termite extract was diluted 1:1 with IP buffer (25 mM Tris-HCl pH 7.6, 150 mM NaCl, 1% v/v NP-40, 1% v/v protease inhibitor cocktail), and incubated with beads for 1 hour at RT. […]

[4] = tested on: termites infected with M. anisopliae; assay: In-vivo survival and exposure assays; set-up: species or system N. corniger
Procedure: Conidia (approx. 3×10^7/mL) were centrifuged at 12,000×g for 1 minute and then suspended in 600 μL 0.1% Tween 80 by vortexing. Two groups of 12 large workers were exposed to filter paper (Watman 5) moistened with these suspensions in 35×15 mm petri dishes for 20 hours. The filter paper was replaced with sterile water-moistened filter paper and dead termites were removed after a daily census of survivorship. tGNBP-2 treatment was performed with conidia suspended in a sample of the immunoprecipitated protein overnight at 25° C., followed by extensive washing in PBS containing 0.1% Tween 80. Dead termites were removed daily, surface sterilized with 70% ethanol and incubated in sterile plates at RT for 4 days for post mortem analysis. For exposure to laminarin or LPS, filter papers were moistened with 300 μL of 0.5 mg/mL or 5 mg/mL solutions of either carbohydrate. Termites were kept on moist filter paper for 24 hours prior to exposure with conidia (10^7/mL). Controls included termites that were not exposed to sugars and/or conidia (0.1% Tween 80). Data were analyzed by Mann-Whitney U test and Wilcoxon Signed Rank tests with Bonferroni corrections for multiple testing. Termite survival data were analyzed by Cox Regression Analysis. Flow histogram SDs were calculated using software produced half-peak coefficients of variance (% HPCV×mean). Data are presented as means±SD.

M. anisopliae conidia = assay: Antifungal assays and combinatorial cytotoxicity mapping on conidia; format: cell-based, Metarhizium anisopliae
Procedure: This mix was incubated for 18-24 hours at 25° C., then plated onto potato dextrose agar 100×15 mm plates and supplemented with 50 μg/mL ampicillin CFUs were counted following a 4-day incubation at 25° C. Femtoliter changes in conidial cell volume were directly measured by flow cytometry. Samples of M. anisopliae conidia in sodium acetate (0.1M, pH 5.5) were incubated in 384 well plates with samples from HPLC fractions in different combinations (F1+F1, F1+F2, F1+F3 . . . F2+F2, F2+F3 . . . F3+F3 . . . , 10 μL of each fraction) overnight at 25° C. and analyzed by flow cytometry. tGNBP-2 was depleted from 250 μL of each fraction as described above, and supernatants were collected and used for the assay.

termite gut symbionts = settings: reference 34; cited from earlier work
tGNBP-2 expression [5] = assay: tGNBP-2 expression following exposure of termites to LPS or laminarin; format: in vivo, N. corniger; settings: 0.5 or 5 mg/mL, FIG. 4F
Procedure: Anti-tGNBP-2 antibodies were raised in rabbits and purified by standard methods (GenScript, Piscataway, N.J.). Antibodies were covalently linked to 1.0μ diameter Dynabeads® MyOne™ carboxylic acid functionalized magnetic beads (Invitrogen) according to the manufacturer's instructions. Fresh termite extract was diluted 1:1 with IP buffer (25 mM Tris-HCl pH 7.6, 150 mM NaCl, 1% v/v NP-40, 1% v/v protease inhibitor cocktail), and incubated with beads for 1 hour at RT. Beads were isolated, washed with IP buffer, and eluted with a commercial neutral pH buffer (Pierce, Rockford, Ill.). Eluate was desalted and concentrated using a centrifugal column (Vivaspin 10K, Sartorius, Goettingen, Germany) and reconstituted in sodium acetate (0.1M, pH 5.5). SDS-PAGE and western blots were performed and developed by standard procedures; loading amounts were validated by BCA assay. Anti-tGNBP-2 was used at 2.5 μg/mL followed by anti-rabbit HRP (Cell Signaling) at 1:1000. Blots were visualized on a Kodak ImageStation 2000R. […] Conidia (approx. 3×10^7/mL) were centrifuged at 12,000×g for 1 minute and then suspended in 600 μL 0.1% Tween 80 by vortexing. Two groups of 12 large workers were exposed to filter paper (Watman 5) moistened with these suspensions in 35×15 mm petri dishes for 20 hours. […]

tGNBP-2 [6] = assay: In-vitro binding interference assay with FITC-labeled LPS; set-up: species or system N. corniger; settings: increasing concentrations, FIG. 5A
Procedure: Isolated tGNBP-2 or rhCD14 (R&D Systems, Minneapolis, Minn.) were linked to 3.0μ diameter polystyrene beads (Polysciences) by a 3-hour incubation in boric acid (0.1M, pH 8.5) followed by 3 washes in cold PBS containing 0.1% v/v rabbit serum. Formaldehyde-inactivated pathogenic strains were labeled with FITC as previously described (41). Beads were incubated with labeled pathogens in buffer at 37° C. for 30 minutes and analyzed by flow cytometry. For interference assays, tGNBP-2-adsorbed beads were incubated with either LPS or laminarin at various concentrations, then directly stained with FITC-labeled LPS (Sigma) and analyzed by FACS.

Molecule | blocking of the β(1,3)-glucanase activity of tGNBP-2 (tGNBP-2 [1]) | effect on other β-glucanases (other β-glucanases) | hemocyte population whose activation is affected ([2]; two hemocyte populations expressing tGNBP-2) | SAPK/JNK phosphorylation activation response of hemocytes ([2]; β(1,3)-D-glucan challenge, FIG. 5D) | induction of tGNBP-2 by laminarin challenge (tGNBP-2 expression [3]) | susceptibility to infection with tGNBP-2-treated conidia ([4]; conidia treated with isolated tGNBP-2 prior to infection) | mortality of termites in the absence of active infection ([4]; no infection) | mortality of termites infected with M. anisopliae ([4]; treated for 24 hours prior to infection, FIG. 6) | direct toxic effect on conidia (M. anisopliae conidia) | blocking of gut symbiont pathways for polysaccharide utilization (termite gut symbionts) | resistance to M. anisopliae infection ([4]; termites exposed to 0.5 or 5 mg/mL for 24 hours prior to conidia, FIG. 4E) | tGNBP-2 expression following exposure (tGNBP-2 expression [5]) | interference with fluorescent LPS binding to bead-linked tGNBP-2 (tGNBP-2 [6])
O=C1O[C@H](CO)[C@@H](O)[C@H](O)[C@H]1O [GDL, D-δ-gluconolactone] | efficiently blocked | left other β-glucanases intact | affected only the activation of granular hemocytes | inhibited this activation response | blocks induction | restored susceptibility to infection | caused accelerated mortality | accelerated mortality | no direct toxic effect | not blocked | – | – | –
laminarin | – | – | – | – | – | – | – | – | – | – | improved resistance | significant upregulation | does not interfere

Reference: patent US9006212B2, “Compositions and methods for pest control” (Massachusetts Institute of Technology, priority 2009, dated 2015)
